Laboratory results published in patent US5658906A, “Cysteine protease and serine protease inhibitors” (Cephalon, Inc., priority 1996, dated 1997).

Columns and labels:
Calpain I = molecular target: T1, Calpain I (Homo sapiens, UniProt P07384); assay: Inhibition and rate of inactivation of calpain I (Succ-Leu-Tyr-MNA hydrolysis); assay type: biochemical; details: mean of three or more independent analyses, corrected for substrate, k2 = kapp(1+[S]/Km), read-out: k2 (second order rate constant of inactivation), A = Calpain I
T1 construct: Calpain I was purified from human red blood cells; from tissue; host or cells: human red blood cells (packed, outdated)
T1 sequence (P07384 1-714): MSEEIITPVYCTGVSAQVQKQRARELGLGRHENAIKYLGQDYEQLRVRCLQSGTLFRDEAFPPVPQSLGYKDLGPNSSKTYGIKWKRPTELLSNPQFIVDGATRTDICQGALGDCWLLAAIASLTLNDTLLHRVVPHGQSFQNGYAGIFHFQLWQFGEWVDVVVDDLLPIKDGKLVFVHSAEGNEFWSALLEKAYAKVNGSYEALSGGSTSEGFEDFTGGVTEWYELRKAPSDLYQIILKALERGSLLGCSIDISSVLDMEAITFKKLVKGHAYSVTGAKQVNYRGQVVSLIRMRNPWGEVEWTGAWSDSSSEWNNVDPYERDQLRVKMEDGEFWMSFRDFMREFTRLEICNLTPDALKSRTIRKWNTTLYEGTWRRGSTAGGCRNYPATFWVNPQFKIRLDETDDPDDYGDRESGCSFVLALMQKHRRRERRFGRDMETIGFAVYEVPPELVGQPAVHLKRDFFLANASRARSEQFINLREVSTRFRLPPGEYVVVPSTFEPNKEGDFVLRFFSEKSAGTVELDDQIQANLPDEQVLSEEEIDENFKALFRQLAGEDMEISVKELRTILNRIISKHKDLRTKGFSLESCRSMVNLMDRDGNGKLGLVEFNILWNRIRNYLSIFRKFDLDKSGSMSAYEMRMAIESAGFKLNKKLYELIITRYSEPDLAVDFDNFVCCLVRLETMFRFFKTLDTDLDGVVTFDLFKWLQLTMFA
T1 sequence (P04632 1-268 partner): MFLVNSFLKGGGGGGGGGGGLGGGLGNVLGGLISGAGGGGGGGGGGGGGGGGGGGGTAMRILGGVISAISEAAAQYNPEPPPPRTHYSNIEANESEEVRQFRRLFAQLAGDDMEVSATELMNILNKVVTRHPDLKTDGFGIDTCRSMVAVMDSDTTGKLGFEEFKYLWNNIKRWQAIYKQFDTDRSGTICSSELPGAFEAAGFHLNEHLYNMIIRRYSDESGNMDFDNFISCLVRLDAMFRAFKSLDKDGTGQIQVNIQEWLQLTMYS
Protocol: To evaluate inhibitory activity of our compounds, stocks (40 times concentrated) of each compound to be tested were prepared in 100% anhydrous dimethyl sulfoxide (DMSO) and 5 μl of each inhibitor preparation was aliquoted into each of three wells of a 96 well plate. Calpain I was purified from human red blood cells using a modification of the method described by Lee, W. J. et al. (Biochem. Internatl. (1990)22(1): 163-171). Briefly, 3 units of packed outdated red blood cells were washed 3× by repeated centrifugation at 500 rpm for 10 minutes through 900 mls of 0.9% NaCl. Cells were lysed in 20 mM Tris/1 mM EDTA/1 mM EGTA/5 mM mercaptoethanol (Buffer A) and centrifuged for 1 hour at 12,000 rpm in a GSA rotor using a Sorval centrifuge. The supernatant was collected and applied to a DEAE-sepharose FF column equilibrated in Buffer A+25 mM NaCl. After washing the column in Buffer A+25 mM NaCl, the bound protein was eluted at 117 ml/hr with a 25 mM to 150 mM NaCl linear gradient in Buffer A collecting 200, 10 mL fractions. Two μl of every fifth fraction was applied to nitrocelluose using a dot blot apparatus and calpain containing fractions identified by Western analysis. For detection of calpain, nitrocellulose sheets were first blocked in 5% Blotto (5% Carnation instant milk/10 mM Tris/[…]150 mM NaCl) for 30 minutes, followed by incubation for 1 hour in antibody directed against Calpain I (rabbit anti-human calpain I polyclonal sera, 1:1000 dilution in 5% Blotto). After three 5 minutes washes in 10 mM Tris/150 mM NaCl/0.05% Tween 20 the nitrocellulose was incubated for 1 hour in secondary alkaline phosphatase conjugated antibody (Biorad Cat#170-6518 1:2000 in 5% Blotto). After three 5 minutes washes in 10 mM Tris/150 mM NaCl/0.05% Tween 20 and 1 wash in 10 mM Tris/150 mM NaCl the nitrocellulose was incubated for up to 2 hours in a colorimetric substrate solution (Biorad Alkaline Phosphatase Substrate conjugate kit, cat#170-6432). The reaction was stopped by washing in water. After fractions containing calpain, and those in between, were pooled, solid ammonium sulfate was added to achieve a 30% solution and the mixture stirred for 1 hour at 4° C. Following collection of the precipitate by centrifugation for 1 hour at 4° C. at 12K rpm in a GSA rotor, the supernatant was collected and brought to 45% in ammonium sulfate. After stirring for 1 hour at 4° C., centrifugation was repeated. The supernatant was discarded and the precipitate resuspended in approximately 7 mls and dialyzed overnight at 4° C. against Buffer A+50 mM NaCl. The sample was then applied to a S300 gel filtration column preequilibrated in Buffer A+50 mM NaCl, washed and eluted at a flow rate of 20 ml/hr, collecting 200, 4 ml fractions. The peak of calpain was determined by assaying aliquots of every fifth fraction for enzyme activity monitored by the hydrolysis of a fluorogenic dipeptide substrate as described below. The peak fractions were pooled and the enzyme preparation used to test compounds for inhibitory activity. As an alternate to enzyme isolated from tissue sources, recombinant human calpain I has also been used to monitor compounds for inhibitory activity.
The foregoing enzyme preparation was diluted into assay buffer (i.e., 50 mM Tris, 50 mM NaCl, 1 mM EDTA, 1 mM EGTA, and 5 mM β-mercaptoethanol, pH 7.5 including 0.2 mM Succ-Leu-Tyr-MNA) and 175 μl aliquoted into the same wells containing the independent inhibitor stocks as well as to positive control wells containing 5 μl DMSO, but no compound. To start the reaction, 20 μl of 50 mM CaCl2 in assay buffer was added to all wells of the plate, excepting three, which were used as background signal baseline controls. Substrate hydrolysis was monitored every 5 minutes for a total of 30 minutes using Flouroskan II (ex=340 nm; em=430 nm). Substrate hydrolysis in the absence of inhibitor was linear for up to 15 minutes. […]

[1] = test system: calpain I in Molt-4 cells (α-spectrin breakdown products); assay: Inhibition of calpain activation in intact Molt-4 cells (calpain-generated spectrin breakdown products); assay type: cell-based; details: Homo sapiens, calcium and ionophore (ionomycin), read-out: % Inhibition of BDPs (10 μM)
α-chymotrypsin = molecular target: T2, α-chymotrypsin (Bos taurus, UniProt P00766); assay: Inhibition of the serine protease α-chymotrypsin (Succ-Ala-Ala-Pro-Phe-AMC hydrolysis); assay type: biochemical; details: pH 7.5, 0.03 mM substrate
T2 construct: purchased Sigma Chem. Co. C-3142
Protocol: Additionally,because α-chymotrypsin is not a calcium sensitive enzyme and is constituitively active, following addition of inhibitor stocks to the 96 well plates, 100 ul of a 2 fold concentrated stock of enzyme in dilution buffer was first added and the reaction started by addition of 100 ul of a 2 fold concentrated stock of substrate in assay buffer. Substrate hydrolysis was monitored every 5 minutes up to 30 minutes using a Fluoroskan II ([…]).

Q: With `CC(C)C[C@H](NC(=O)OCc1ccccc1)C(=O)N[C@@H](Cc1ccccc1)C(=O)COn1cnc2ccccc21` [Example 22, 1-[N-[N-Benzyloxycarbonyl-L-leucyl]-(3S)-4-phenyl-3-amino-2-oxybutyloxy]benzimidazole] as the molecule, how does the kinact/KI (Calpain I) read?
A: 4000 M⁻¹ s⁻¹

Q: What about the inhibition at 10 µM [1] of the same molecule?
A: 61%

Q: And the inhibition at 10 µM (α-chymotrypsin)?
A: 91%
